This note sets out measurements from EP2058306A1, “Heteroaryl-substituted 2-pyridinyl-methylamine derivatives” (SCHWARZ PHARMA AG, priority 2007, dated 2009).

In experiment [1] the target is T1, 5-HT2 (Sus scrofa, UniProt P50129).
T1 construct: membrane preparations from porcine cortex; from tissue; host or cells: porcine cortex
Kind of experiment: radioligand binding assay, serotonin 5-HT2 receptor, [3H]ketanserin. Also on record: species or system porcine.

Experiment [2] concerns the target T2, 5-HT1A (Sus scrofa, UniProt A0A4X1UTF5).
T2 construct: membrane preparations from porcine cortex; from tissue; host or cells: porcine cortex
T2 sequence (A0A4X1UTF5 1-422): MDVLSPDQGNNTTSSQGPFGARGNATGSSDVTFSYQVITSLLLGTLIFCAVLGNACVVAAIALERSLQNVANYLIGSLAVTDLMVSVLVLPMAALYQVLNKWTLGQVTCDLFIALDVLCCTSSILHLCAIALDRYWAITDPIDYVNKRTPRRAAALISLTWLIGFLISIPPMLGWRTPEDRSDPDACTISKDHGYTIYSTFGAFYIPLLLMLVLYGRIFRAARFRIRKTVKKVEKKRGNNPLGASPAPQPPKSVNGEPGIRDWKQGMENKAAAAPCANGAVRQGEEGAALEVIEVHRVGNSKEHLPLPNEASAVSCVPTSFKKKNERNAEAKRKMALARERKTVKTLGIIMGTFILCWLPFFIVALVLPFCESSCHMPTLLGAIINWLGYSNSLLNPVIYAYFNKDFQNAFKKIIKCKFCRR
Kind of experiment: radioligand binding assay, serotonin 5-HT1A receptor, [3H]WAY 100635. The settings on record: porcine cortex membranes, mean of two to five experiments in triplicate, read-out: Ki 5-HT1a. Here is the method:
(§1) The investigation of receptor binding to the serotonin and adrenergic receptors was done according to a published procedure (Heindl, C. et al., Tetrahedron: Asymmetry (2003), 14, 3141-3152). In detail, for the determination of the binding properties to serotonin receptors membrane preparations from porcine cortex was incubated with the 5-HT1A selective radioligand [^3H]WAY 100635 or with the 5-HT2 selective compound [^3H]ketanserin. The measurement of alpha-1 and alpha-2 receptor binding was achieved when utilizing porcine cortical membranes and the selective radioligands [^3H]prazosin (for alpha-1) and [^3H]RX821002 in an assay similar to that described above.
(§2) The results of the binding experiments are summarized in Table 1 as mean values of two to five individual experiments each done in triplicate and expressed as Ki values in nM.

Experiment [3] has as its target human D3 (Homo sapiens, UniProt P35462). Kind of experiment: radioligand binding assay, dopamine D3 receptor, [3H]spiperone. Conditions: CHO cell membranes, mean of two to five experiments in triplicate, read-out: Ki D3. The method, then:
(§3) These experiments have been done according to methods which are described in literature (Hübner, H. et al., J. Med. Chem. (2000), 43, 7562). For the determination of binding affinity to the receptors of the dopamine D2 family membranes were established carrying the human D2long, D2short, D3 or D4.4 receptor subtype stably expressed in Chinese hamster ovary cell lines. In principle, the binding experiments started when incubating an appropriate amount of membrane with the radioligand [^3H]spiperone and the particular test compounds used in a wide range of different concentrations from subnanomolar up to micromolar ones.

The target of experiment [4] is human D2long, D2short (Homo sapiens, UniProt P14416). In words: biochemical. It is filed as binding. The settings on record: CHO cell membranes, [3H]spiperone; mean of two to five experiments in triplicate; read-out: Ki D2. The method, then:
as §3

For experiment [5], the target named is T3, human 5-HT1A receptor (Homo sapiens, UniProt P08908).
T3 construct: expressed in transfected cells
T3 sequence (P08908 1-422): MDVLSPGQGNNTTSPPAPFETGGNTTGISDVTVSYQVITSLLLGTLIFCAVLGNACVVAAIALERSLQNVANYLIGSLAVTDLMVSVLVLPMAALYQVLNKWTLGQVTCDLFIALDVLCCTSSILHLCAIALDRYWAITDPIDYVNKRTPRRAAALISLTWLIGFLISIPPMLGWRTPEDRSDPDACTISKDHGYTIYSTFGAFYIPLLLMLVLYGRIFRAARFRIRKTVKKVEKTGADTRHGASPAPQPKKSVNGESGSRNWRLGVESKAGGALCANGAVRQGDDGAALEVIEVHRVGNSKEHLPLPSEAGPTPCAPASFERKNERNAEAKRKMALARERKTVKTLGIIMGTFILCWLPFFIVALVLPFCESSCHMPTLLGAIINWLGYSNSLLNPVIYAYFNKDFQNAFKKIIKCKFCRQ
Kind of experiment: [35S]GTPγS assay of functional activity at the 5-HT1A receptor. Conditions: membranes from CHO cells expressing human 5-HT1A receptor; for 5-HT1A stimulated [35S]GTPγS binding intrinsic effect: % activity of serotonin; for EC50: read-out: 5-HT1A stimulated [35S]GTPγS binding EC50 value. The format is biochemical. The method, then: In detail, membranes from CHO (Chinese hamster ovary) cells stably expressing the human 5-HT1A receptor were stimulated with an increasing concentration of test compounds used in a range of subnanomolar to micromolar concentrations in the presence of radioactive [^35S]GTPγ. The amount of bound radioactivity which indicates the amount of stimulation of the receptor was determined after transferring the membranes to filters by scintillation counting. Dose response correlations could be derived and the particular stimulation of the receptor was compared to the maximum effect of the reference compound and physiological ligand serotonin.
Table 2: Intrinsic activities of the compounds of this invention at the serotonin 5-HT1A receptor determined in a [35S]GTPγS assay

Experiment [6] addresses T4, dopamine D1 receptor (Sus scrofa, UniProt P50130).
T4 construct: native membrane preparations from porcine striatum; from tissue; host or cells: porcine striatum
Kind of experiment: radioligand binding assay, dopamine D1 receptor, [3H]SCH 23390. The settings on record: porcine striatum membranes, mean of two to five experiments in triplicate, read-out: Ki D1.
Excerpt: as §3, with “Biological activity of the compounds has been determined in radioligand binding assays. These” for “These”, “ones. In the same way, binding affinities of the test compounds to the dopamine D1 receptor were determined when using native membrane preparations from porcine striatum and the D1 selective radioligand [^3H]SCH 23390.” for “ones.”
as §2

For experiment [7], the target named is T5, human D4.4 (Homo sapiens, UniProt P21917).
T5 sequence (P21917 1-419): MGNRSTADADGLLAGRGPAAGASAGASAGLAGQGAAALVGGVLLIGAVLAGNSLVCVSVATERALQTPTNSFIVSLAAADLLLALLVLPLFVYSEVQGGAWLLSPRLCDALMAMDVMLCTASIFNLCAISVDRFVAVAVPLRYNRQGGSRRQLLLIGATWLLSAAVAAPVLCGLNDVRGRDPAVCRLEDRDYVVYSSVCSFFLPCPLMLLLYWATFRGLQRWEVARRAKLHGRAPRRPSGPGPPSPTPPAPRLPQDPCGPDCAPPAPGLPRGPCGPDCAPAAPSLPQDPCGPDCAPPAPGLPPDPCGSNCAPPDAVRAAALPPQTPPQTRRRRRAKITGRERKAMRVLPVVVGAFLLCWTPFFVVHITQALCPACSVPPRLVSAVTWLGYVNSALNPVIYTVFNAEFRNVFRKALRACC
In words: radioligand binding assay, dopamine D4.4 receptor, [3H]spiperone. Conditions: CHO cell membranes, mean of two to five experiments in triplicate, read-out: Ki D4.4.
Excerpt: as §3, with “Biological activity of the compounds has been determined in radioligand binding assays. These” for “These”, “ones. In the same way, binding affinities of the test compounds to the dopamine D1 receptor were determined when using native membrane preparations from porcine striatum and the D1 selective radioligand [^3H]SCH 23390.” for “ones.”
as §2

Experiment [8] addresses alpha-1. In words: radioligand binding assay, adrenergic alpha-1 receptor, [3H]prazosin. The settings on record: porcine cortical membranes, mean of two to five experiments in triplicate, read-out: Ki alpha1. Here is the method: as §1, §2
Setting [9] is: porcine cortex membranes, [3H]ketanserin, mean of two to five experiments in triplicate, read-out: Ki 5-HT2.

The structures appear in SMILES notation. Read-outs that look alike come from different tables or passages of the source. A value given as a limit tells only on which side of the number the result lay.

T4 sequence (P50130 whole entry): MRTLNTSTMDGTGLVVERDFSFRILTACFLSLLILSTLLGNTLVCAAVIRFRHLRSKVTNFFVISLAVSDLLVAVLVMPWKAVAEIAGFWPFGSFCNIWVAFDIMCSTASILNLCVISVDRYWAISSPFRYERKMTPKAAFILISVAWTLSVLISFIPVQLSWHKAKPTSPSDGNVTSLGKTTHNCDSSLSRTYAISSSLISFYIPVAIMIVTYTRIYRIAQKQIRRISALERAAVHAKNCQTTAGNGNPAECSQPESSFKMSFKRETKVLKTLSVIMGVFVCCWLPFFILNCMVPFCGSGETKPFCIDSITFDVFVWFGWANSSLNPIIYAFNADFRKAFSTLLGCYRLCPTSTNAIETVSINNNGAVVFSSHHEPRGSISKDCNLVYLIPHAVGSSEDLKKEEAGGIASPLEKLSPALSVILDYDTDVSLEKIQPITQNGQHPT
Chain of human D2long, D2short (P14416 whole entry): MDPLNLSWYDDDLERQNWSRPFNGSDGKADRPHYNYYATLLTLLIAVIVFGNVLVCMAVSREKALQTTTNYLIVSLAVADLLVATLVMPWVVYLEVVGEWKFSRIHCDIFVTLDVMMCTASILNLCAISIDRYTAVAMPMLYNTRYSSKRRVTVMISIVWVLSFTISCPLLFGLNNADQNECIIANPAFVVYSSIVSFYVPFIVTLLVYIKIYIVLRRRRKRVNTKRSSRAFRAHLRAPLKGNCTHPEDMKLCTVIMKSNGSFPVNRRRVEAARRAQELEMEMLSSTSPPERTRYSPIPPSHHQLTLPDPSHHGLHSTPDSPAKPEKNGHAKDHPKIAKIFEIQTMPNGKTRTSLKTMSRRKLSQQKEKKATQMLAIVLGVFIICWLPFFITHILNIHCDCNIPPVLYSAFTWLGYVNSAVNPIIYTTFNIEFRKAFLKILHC
Chain of human D3 (P35462 whole entry): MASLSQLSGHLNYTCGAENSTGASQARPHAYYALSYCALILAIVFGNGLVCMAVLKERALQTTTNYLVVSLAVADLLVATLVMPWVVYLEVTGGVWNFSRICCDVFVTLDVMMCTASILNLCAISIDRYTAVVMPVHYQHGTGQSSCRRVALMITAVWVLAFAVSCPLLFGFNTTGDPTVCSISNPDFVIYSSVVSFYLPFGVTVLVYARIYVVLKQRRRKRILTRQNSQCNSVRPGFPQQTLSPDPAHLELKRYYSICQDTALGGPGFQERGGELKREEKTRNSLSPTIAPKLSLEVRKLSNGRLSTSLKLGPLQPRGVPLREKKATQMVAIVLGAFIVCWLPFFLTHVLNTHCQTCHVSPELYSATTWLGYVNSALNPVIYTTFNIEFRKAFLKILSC
T1 sequence (P50129 whole entry): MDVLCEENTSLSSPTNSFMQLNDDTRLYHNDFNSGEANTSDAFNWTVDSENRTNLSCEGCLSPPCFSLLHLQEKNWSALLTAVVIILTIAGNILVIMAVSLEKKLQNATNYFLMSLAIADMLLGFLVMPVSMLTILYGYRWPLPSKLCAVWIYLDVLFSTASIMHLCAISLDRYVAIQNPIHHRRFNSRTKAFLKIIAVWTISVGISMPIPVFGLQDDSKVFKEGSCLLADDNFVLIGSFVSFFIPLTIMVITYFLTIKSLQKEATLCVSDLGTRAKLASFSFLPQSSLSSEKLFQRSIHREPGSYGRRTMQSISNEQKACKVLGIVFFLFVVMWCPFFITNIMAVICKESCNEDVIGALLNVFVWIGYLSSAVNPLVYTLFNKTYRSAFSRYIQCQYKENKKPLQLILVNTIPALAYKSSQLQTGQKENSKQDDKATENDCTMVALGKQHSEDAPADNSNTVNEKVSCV

For `Cc1ccc(CNCC2(F)CCN(C(=O)c3cccs3)CC2)nc1` [Example E1], the inhibitory constant (Ki) was above 5 µM in experiment [1] (setting [9]); below 0.05 µM in experiment [2]; above 5 µM in experiment [3]; above 5 µM in experiment [4]; above 5 µM in experiment [6]; above 5 µM in experiment [7]. In addition, in experiment [8], the Ki was above 5 µM. In addition, in experiment [5], the “5-HT1A stimulated [35S]GTPγS binding intrinsic effect” value (shortened to “5-HT1A stimulated”) is “D (D=full agonist (>75%))”. Moreover, the 50% effective concentration (EC50) in experiment [5] is below 0.05 µM.
Turning to `Cc1ccc(CNCC2(F)CCN(C(=O)c3cc(Br)cs3)CC2)nc1` [Example E6, 4-Bromothien-2-yl-[4-fluoro-4-[[(5-methylpyridin-2-ylmethyl)amino]methyl]-piperidin-1-yl]-methanone], the inhibition constant (Ki) in experiment [1] (setting [9]) was above 5 µM; in experiment [2] it was below 0.05 µM; in experiment [3] it was above 5 µM; in experiment [4], above 5 µM; in experiment [6], above 5 µM; in experiment [7], 0.501 to 5 µM. Moreover, in experiment [8], the Ki lay in the range of 0.501 to 5 µM. Further, the “5-HT1A stimulated” value in experiment [5] is given as “D (D=full agonist (>75%))”. In addition, the concentration for a half-maximal effect (EC50) in experiment [5] was below 0.05 µM.
In the case of `Cc1ccc(CNCC2(F)CCN(C(=O)c3ccc(C)s3)CC2)nc1` [Example E11, [4-Fluoro-4-[[(5-methylpyridin-2-ylmethyl)amino]methyl]piperidin-1-yl]-5-mothylthiophon-2-yl-mothanone], the Ki in experiment [1] was above 5 µM; in experiment [2], below 0.05 µM; in experiment [3], above 5 µM; in experiment [4], above 5 µM; in experiment [6], above 5 µM; in experiment [7], 0.501 to 5 µM. For the same compound, in experiment [8], the inhibition constant Ki is above 5 µM. In experiment [5], the “5-HT1A stimulated” value is “D (D=full agonist (>75%))”. Also, the 50% effective concentration (EC50) in experiment [5] was below 0.05 µM.
For `Cc1ccc(CNCC2(F)CCN(C(=O)c3ccc(Cl)s3)CC2)nc1` [Example E4, 5-Chlorothien-2-yl-[4-fluoro-4-[[(5-methylpyridin-2-ylmethyl)amino]methyl]-piperidin-1-yl]-methanone], the Ki was above 5 µM in experiment [1] (setting [9]); below 0.05 µM in experiment [2]; above 5 µM in experiment [3]; above 5 µM in experiment [4]; above 5 µM in experiment [6]; 0.501 to 5 µM in experiment [7]. In addition, the Ki in experiment [8] lay within 0.501 to 5 µM. The “5-HT1A stimulated” value in experiment [5] is reported as “D (D=full agonist (>75%))”. In addition, the 50% effective concentration (EC50) in experiment [5] was below 0.05 µM.
Take `Cc1ccc(CNCC2(F)CCN(C(=O)c3ccc(Br)s3)CC2)nc1` [Example E7, 5-Bromothion-2-yl-[4-fluoro-4-[[(5-mothylpyridin-2-ylmethyl)amino]methyl]-piperidin-1-yl]-methanone]: the inhibition constant Ki is above 5 µM in experiment [1]; below 0.05 µM in experiment [2]; above 5 µM in experiment [3]; above 5 µM in experiment [4]; above 5 µM in experiment [6]; 0.501 to 5 µM in experiment [7]. In addition, in experiment [8], the Ki lay within 0.501 to 5 µM. In addition, the “5-HT1A stimulated” value in experiment [5] is “D (D=full agonist (>75%))”. In experiment [5], the concentration for a half-maximal effect (EC50) is below 0.05 µM.
Consider `Cc1ccc(CNCC2(F)CCN(C(=O)c3sccc3Br)CC2)nc1` [Example E5, 3-Bromothien-2-yl-[4-fluoro-4-[[(5-mothylpyridin-2-ylmethyl)amino]mothyl]-piperidin-1-yl]-methanone], for which the inhibition constant (Ki) is above 5 µM in experiment [1]; below 0.05 µM in experiment [2]; above 5 µM in experiment [3]; above 5 µM in experiment [4]; above 5 µM in experiment [6]; 0.501 to 5 µM in experiment [7]. Also, the Ki in experiment [8] lay in the range of 0.501 to 5 µM. For the same compound, in experiment [5], the “5-HT1A stimulated” value is “D (D=full agonist (>75%))”. Moreover, the concentration for a half-maximal effect (EC50) in experiment [5] was below 0.05 µM.
Regarding `Cc1ccc(CNCC2(F)CCN(C(=O)c3scc4c3CCCC4)CC2)nc1` [Example E29, [4-Fluoro-4-[[(5-methylpyridin-2-ylmethyl)amino]methyl]pipendin-1-yl]-4,5,6,7-tetrahydrobenzo[c]thien-1-yl-methanone], the inhibition constant (Ki) was above 5 µM in experiment [1] (setting [9]); below 0.05 µM in experiment [2]; above 5 µM in experiment [3]; above 5 µM in experiment [4]; above 5 µM in experiment [6]; 0.501 to 5 µM in experiment [7]. Besides, in experiment [8], the inhibitory constant (Ki) is 0.501 to 5 µM.
Turning to `Cc1ccc(CNCC2(F)CCN(C(=O)c3cnn4ccccc34)CC2)nc1` [Example E43, [4-Fluoro-4-[[(5-methylpyridin-2-ylmethyl)amino]methyl]piperidin-1-yl]-pyrazolo[1,5-a]pyridin-3-yl-methanone], the Ki in experiment [1] (setting [9]) is above 5 µM; in experiment [2] it was 0.05 to 0.5 µM; in experiment [3], above 5 µM; in experiment [4], above 5 µM; in experiment [6] it was above 5 µM; in experiment [7] it was above 5 µM. In experiment [8], the inhibitory constant (Ki) was in the range of 0.501 to 5 µM.
For the compound `COc1c(C(=O)N2CCC(F)(CNCc3ccc(C)cn3)CC2)csc1Cl` [Example E21, 5-Chloro-4-methoxythien-3-yl-[4-fluoro-4-[[(5-methylpyridin-2-ylmethyl)amino]methyl]piperidin-1-yl]-methanone], the inhibitory constant (Ki) in experiment [1] (setting [9]) was above 5 µM; in experiment [2], below 0.05 µM; in experiment [3], above 5 µM; in experiment [4], above 5 µM; in experiment [6], above 5 µM; in experiment [7], 0.501 to 5 µM. Also, the inhibition constant (Ki) in experiment [8] was 0.501 to 5 µM.
